The record followed here is US9562035B2, “Benzamide derivative useful as FASN inhibitors for the treatment of cancer” (Janssen Pharmaceutica NV, priority 2013, dated 2017).

In test [1] the test system is A2780 ovarian cells. Nature of the test: A2780 Ovarian Cell Proliferation Assay in Lipid Reduced Medium, without Palmitate. As to conditions: Homo sapiens, A2780; lipid reduced medium, without palmitate, 96 h, MTT; read-out: Proliferation A2780 w/o Palmitate pIC50 (converted). In kind it is cell-based. In short, it runs like this:
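A2780 cells were seeded in 10% FCS medium and switched next day to 10% lipid-reduced serum without palmitate. Compounds at 0.01–30 μM were added with 0.2% DMSO, 0.2% fatty-acid-free BSA and 0.25% ethanol final. After 96 h, MTT absorbance at 544 nm was normalized to plate controls, and IC50/pIC50 came from a 4-parameter logistic fit.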

Test [2] deals with T1, FASN Keto-reductase Domain (Homo sapiens, UniProt P49327).
T1 construct: 10 μL hFASN enzyme (full length, 300 ng, purified in house) and 360 μM NADPH; made in house
Nature of the test: Fatty Acid Synthase Keto-Reductase Domain (FASN KR) Inhibition. The class given is biochemical. As to conditions: mean where tested more than once; read-out: FASN K-R Domain pIC50 (converted). The essentials:
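Keto-reductase activity followed as NADPH consumption (A340 drop between 0 and 20 min, room temperature) using in-house full-length hFASN, 360 μM NADPH and ethyl acetoacetate substrate (180 mM stock), pH 7.5 phosphate buffer.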

Test [3] concerns the target T2, hFASN enzyme (full length) (Homo sapiens, UniProt P49327).
T2 construct: 10 μL hFASN enzyme (full length, 300 ng, purified in house); made in house
Kind of test: Fatty Acid Synthase (FASN) Inhibition Scintillation Proximity Assay. In kind it is biochemical. As to conditions: for IC50: mean where tested more than once, ~ = standard error of pIC50 larger than 0.5; for inhibition at 10 µM: read-out: FASN % Effect @1E−05M. The essentials: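 Eight compound concentrations (0.01–30 μM) tested in pH 7.5 phosphate buffer with DTT; human full-length enzyme converted [3H]-acetyl-CoA plus malonyl-CoA, with NADPH, over 60 min at room temperature. Hydrophobic [3H]-palmitate detected by bead proximity scintillation imaging; control-normalised data fitted for IC50/pIC50.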
(In a scintillation proximity assay essentially only radioactivity close to the scintillant gives light.)

Test [4] deals with A2780 ovarian cells. Kind of test: A2780 Ovarian Cell Proliferation Assay in Lipid Reduced Medium, with Palmitate (control). In kind it is cell-based. As to conditions: Homo sapiens, A2780; lipid reduced medium, 25 μM palmitate, 96 h, MTT; read-out: Proliferation A2780 with Palmitate pIC50 (converted). The essentials: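 Read-out was MTT absorbance at 544 nm after 96 h at 37 °C. Cells grown overnight in RPMI1640/10% FCS were moved to 10% lipid-reduced serum with compound plus palmitate (final 25 μM, 0.2% fatty-acid-free BSA, 0.2% DMSO). IC50 came from least-squares curve fitting, expressed as −log(IC50).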

T2 sequence (P49327 whole entry): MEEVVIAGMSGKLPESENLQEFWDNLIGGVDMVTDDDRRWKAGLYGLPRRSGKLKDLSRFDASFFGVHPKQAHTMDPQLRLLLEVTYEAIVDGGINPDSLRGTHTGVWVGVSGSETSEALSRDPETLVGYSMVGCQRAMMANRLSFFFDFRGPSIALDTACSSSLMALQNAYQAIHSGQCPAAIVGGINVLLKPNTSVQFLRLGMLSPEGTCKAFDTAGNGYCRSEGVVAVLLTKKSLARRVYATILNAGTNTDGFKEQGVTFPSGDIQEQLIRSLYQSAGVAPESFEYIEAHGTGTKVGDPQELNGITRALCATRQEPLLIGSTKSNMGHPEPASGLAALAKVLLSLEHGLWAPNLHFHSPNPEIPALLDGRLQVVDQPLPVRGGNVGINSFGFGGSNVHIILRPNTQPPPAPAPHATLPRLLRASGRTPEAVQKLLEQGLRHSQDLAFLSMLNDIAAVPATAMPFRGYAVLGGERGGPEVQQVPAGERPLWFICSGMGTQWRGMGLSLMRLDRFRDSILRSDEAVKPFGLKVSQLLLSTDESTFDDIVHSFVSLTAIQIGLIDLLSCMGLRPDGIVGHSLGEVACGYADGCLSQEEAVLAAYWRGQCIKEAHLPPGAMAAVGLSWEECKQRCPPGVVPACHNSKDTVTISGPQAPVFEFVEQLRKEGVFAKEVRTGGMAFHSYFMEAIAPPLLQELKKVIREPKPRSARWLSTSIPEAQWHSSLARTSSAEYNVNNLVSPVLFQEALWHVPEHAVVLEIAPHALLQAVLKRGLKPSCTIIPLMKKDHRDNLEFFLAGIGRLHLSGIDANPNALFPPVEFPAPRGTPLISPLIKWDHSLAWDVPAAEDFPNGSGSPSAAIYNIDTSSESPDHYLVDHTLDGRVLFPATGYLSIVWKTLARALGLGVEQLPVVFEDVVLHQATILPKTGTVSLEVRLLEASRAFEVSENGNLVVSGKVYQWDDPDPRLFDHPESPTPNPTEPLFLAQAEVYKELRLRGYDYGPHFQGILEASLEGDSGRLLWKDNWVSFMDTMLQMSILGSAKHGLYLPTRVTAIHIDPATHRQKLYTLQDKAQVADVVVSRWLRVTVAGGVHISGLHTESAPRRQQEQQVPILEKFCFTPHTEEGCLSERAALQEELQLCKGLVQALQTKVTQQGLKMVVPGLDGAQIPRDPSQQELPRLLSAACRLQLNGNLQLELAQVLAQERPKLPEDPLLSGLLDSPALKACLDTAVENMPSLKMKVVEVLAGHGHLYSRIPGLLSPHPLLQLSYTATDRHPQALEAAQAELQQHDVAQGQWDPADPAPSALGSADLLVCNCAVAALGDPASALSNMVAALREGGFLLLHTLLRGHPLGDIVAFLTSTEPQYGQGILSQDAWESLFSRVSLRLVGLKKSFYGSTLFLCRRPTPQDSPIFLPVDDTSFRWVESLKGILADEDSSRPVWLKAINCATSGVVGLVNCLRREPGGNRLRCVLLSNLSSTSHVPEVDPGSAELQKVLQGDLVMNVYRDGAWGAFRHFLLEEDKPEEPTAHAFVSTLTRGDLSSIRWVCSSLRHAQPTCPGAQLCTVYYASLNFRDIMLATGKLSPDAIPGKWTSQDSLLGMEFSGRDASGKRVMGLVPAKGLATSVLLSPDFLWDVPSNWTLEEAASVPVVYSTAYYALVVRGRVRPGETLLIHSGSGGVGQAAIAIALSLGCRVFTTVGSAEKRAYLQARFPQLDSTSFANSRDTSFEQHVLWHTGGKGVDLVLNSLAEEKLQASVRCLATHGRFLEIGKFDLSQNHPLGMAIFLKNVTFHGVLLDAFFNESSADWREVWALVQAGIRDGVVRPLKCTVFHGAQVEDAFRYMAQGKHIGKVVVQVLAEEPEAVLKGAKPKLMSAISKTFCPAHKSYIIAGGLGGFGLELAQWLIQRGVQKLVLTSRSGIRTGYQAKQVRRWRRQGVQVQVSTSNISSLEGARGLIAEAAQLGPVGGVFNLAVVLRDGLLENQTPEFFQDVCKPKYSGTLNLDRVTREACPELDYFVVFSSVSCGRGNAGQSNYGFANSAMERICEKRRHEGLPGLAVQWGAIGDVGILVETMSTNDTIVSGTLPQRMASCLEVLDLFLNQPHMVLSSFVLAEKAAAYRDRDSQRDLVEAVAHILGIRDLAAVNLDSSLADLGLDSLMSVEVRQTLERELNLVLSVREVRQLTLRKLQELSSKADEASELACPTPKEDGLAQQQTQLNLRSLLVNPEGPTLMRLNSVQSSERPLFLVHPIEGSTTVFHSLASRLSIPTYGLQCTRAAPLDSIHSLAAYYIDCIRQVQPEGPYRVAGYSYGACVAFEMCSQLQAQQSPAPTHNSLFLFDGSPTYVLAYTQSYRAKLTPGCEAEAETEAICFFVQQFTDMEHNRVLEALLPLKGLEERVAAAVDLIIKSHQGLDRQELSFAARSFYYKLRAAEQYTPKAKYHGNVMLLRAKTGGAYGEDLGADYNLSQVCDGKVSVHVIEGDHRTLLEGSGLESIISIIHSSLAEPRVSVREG
T1 sequence (P49327 whole entry, the tested form may be a part): as the sequence (P49327 whole entry) above

With `Cc1ccc(C(=O)N2CCC(c3ccc(-c4ccccc4)cc3)CC2)cc1NC(=O)c1ccc(NC(C)C)nc1` [Compound 225, N-(5-(4-([1,1′-biphenyl]-4-yl)piperidine-1-carbonyl)-2-methylphenyl)-6-(isopropylamino)nicotinamide], the IC50 in the test on A2780 ovarian cells [1] was 589 nM; in test [2], 457 nM; in test [3], 339 nM; in the test on A2780 ovarian cells [4], 1580 nM. For the same compound, the inhibition at 10 µM in test [3] turned out to be 79%.
For `Cc1ccc(C(=O)N2CCC(c3ccc(-c4cccc(F)c4)cc3)CC2)cc1NC(=O)c1ccc(NC(C)C)nc1` [Compound 230, N-(5-(4-(3′-fluoro-[1,1′-biphenyl]-4-yl)piperidine-1-carbonyl)-2-methylphenyl)-6-(isopropylamino)nicotinamide] the same measures were 692 nM, 525 nM, 363 nM, 2510 nM and 79%.
For `COc1ccc(C(=O)N2CCC(c3ccc(-c4cnn(C)c4)cc3)CC2)cc1NC(=O)c1ccc(Cl)nc1` [Compound 231, 6-chloro-N-(2-methoxy-5-(4-(4-(1-methyl-1H-pyrazol-4-yl)phenyl)piperidine-1-carbonyl)phenyl)nicotinamide], the IC50 in the test on A2780 ovarian cells [1] was 115 nM; in test [2], 107 nM; in test [3], 33.9 nM; in the test on A2780 ovarian cells [4] it was greater than 10000 nM. Also, the inhibition at 10 µM in test [3] is 114%.
Taken in the same sequence, the figures for `Cc1ccc(C(=O)N2CCC(c3ccc(-c4ccccc4C)cc3)CC2)cc1NC(=O)c1ccc(NC(C)C)nc1` [Compound 232, 6-(isopropylamino)-N-(2-methyl-5-(4-(2′-methyl-[1,1′-biphenyl]-4-yl)piperidine-1-carbonyl)phenyl)nicotinamide] were 389 nM, 490 nM, 324 nM, 6610 nM and 85%.
For `Cc1cccc(-c2ccc(C3CCN(C(=O)c4ccc(C)c(NC(=O)c5ccc(NC(C)C)nc5)c4)CC3)cc2)c1` [Compound 233, 6-(isopropylamino)-N-(2-methyl-5-(4-(3′-methyl-[1,1′-biphenyl]-4-yl)piperidine-1-carbonyl)phenyl)nicotinamide], the IC50 is 759 nM with A2780 ovarian cells [1], 776 nM in test [2], 575 nM in test [3] and 955 nM with A2780 ovarian cells [4]. For the same compound, in test [3], the inhibition at 10 µM was 72%.
For `Cc1ccc(C(=O)N2CCC(c3ccc(-c4ccoc4)cc3)CC2)cc1NC(=O)c1ccc(NC(C)C)nc1` [Compound 235, N-(5-(4-(4-(furan-3-yl)phenyl)piperidine-1-carbonyl)-2-methylphenyl)-6-(isopropylamino)nicotinamide] the same measures were 74.1 nM, 102 nM, 53.7 nM, 1580 nM and 112%.
Taken in the same sequence, the figures for `Cc1ccc(C(=O)N2CCC(c3ccc(-c4cccs4)cc3)CC2)cc1NC(=O)c1ccc(NC(C)C)nc1` [Compound 236, 6-(isopropylamino)-N-(2-methyl-5-(4-(4-(thiophen-2-yl)phenyl)piperidine-1-carbonyl)phenyl)nicotinamide] were 603 nM, 355 nM, roughly 309 nM, 1950 nM and 74%.
With `Cc1ccc(C(=O)N2CCC(c3ccc(-c4cnn(C)c4)cc3)C2)cc1NC(=O)c1ccc(NC(C)C)nc1` (stereo not drawn) [Compound 237, 6-(isopropylamino)-N-(2-methyl-5-(3-(4-(1-methyl-1H-pyrazol-4-yl)phenyl)pyrrolidine-1-carbonyl)phenyl)nicotinamide], the IC50 was 166 nM in the test on A2780 ovarian cells [1], 380 nM in test [2], 129 nM in test [3] and greater than 10000 nM with A2780 ovarian cells [4]. Further, the inhibition at 10 µM in test [3] was 101%.
`Cc1ccc(C(=O)N2CCC(c3ccc(-c4cnn(C)c4)cc3)CC2)cc1NC(=O)[C@@H]1CCCN1C` [Compound 238, (S)-1-methyl-N-(2-methyl-5-(4-(4-(1-methyl-1H-pyrazol-4-yl)phenyl)piperidine-1-carbonyl)phenyl)pyrrolidine-2-carboxamide]: the IC50 was 741 nM in the test with A2780 ovarian cells [1], 1020 nM in test [2], 479 nM in test [3] and greater than 10000 nM with A2780 ovarian cells [4]. In addition, the inhibition at 10 µM in test [3] was 100%.
For `Cc1ccc(C(=O)N2CCC(c3ccc(-c4cnn(C)c4)cc3)CC2)cc1NC(=O)[C@H]1CCCN1C` [Compound 239, (R)-1-methyl-N-(2-methyl-5-(4-(4-(1-methyl-1H-pyrazol-4-yl)phenyl)piperidine-1-carbonyl)phenyl)pyrrolidine-2-carboxamide] the same measures were 195 nM, 457 nM, 123 nM, greater than 10000 nM and 110%.
Taken in the same sequence, the figures for `Cc1ccc(C(=O)N2CCC(c3ccc(-c4cnn(C)c4)cc3)CC2)cc1NC(=O)C1CN(C2CCC2)C1` [Compound 240, 1-cyclobutyl-N-(2-methyl-5-(4-(4-(1-methyl-1H-pyrazol-4-yl)phenyl)piperidine-1-carbonyl)phenyl)azetidine-3-carboxamide] were 162 nM, 407 nM, 83.2 nM, greater than 10000 nM and 106%.
For `Cc1ccc(C(=O)N2CCC(c3ccc(-c4cnn(C)c4)cc3)CC2)cc1NC(=O)C1CCN(C2CCC2)C1` (stereo not drawn) [Compound 241, 1-cyclobutyl-N-(2-methyl-5-(4-(4-(1-methyl-1H-pyrazol-4-yl)phenyl)piperidine-1-carbonyl)phenyl)pyrrolidine-3-carboxamide] the same measures were 148 nM, 468 nM, 145 nM, greater than 10000 nM and 101%.
On to `CCCCN1CC(C(=O)Nc2cc(C(=O)N3CCC(c4ccc(-c5cnn(C)c5)cc4)CC3)ccc2C)C1` [Compound 242, 1-butyl-N-(2-methyl-5-(4-(4-(1-methyl-1H-pyrazol-4-yl)phenyl)piperidine-1-carbonyl)phenyl)azetidine-3-carboxamide], for which the IC50 in the test on A2780 ovarian cells [1] was 95.5 nM; in test [2], 158 nM; in test [3] it was 72.4 nM; in the test with A2780 ovarian cells [4], greater than 10000 nM. Also, the inhibition at 10 µM in test [3] was found to be 105%.
For `CCCCCCN1CC(C(=O)Nc2cc(C(=O)N3CCC(c4ccc(-c5cnn(C)c5)cc4)CC3)ccc2C)C1` [Compound 243, 1-hexyl-N-(2-methyl-5-(4-(4-(1-methyl-1H-pyrazol-4-yl)phenyl)piperidine-1-carbonyl)phenyl)azetidine-3-carboxamide] the same measures were 240 nM, 186 nM, 129 nM, 7080 nM and 105%.
For `Cc1ccc(C(=O)N2CCC(c3ccc(-c4cnn(C)c4)cc3)CC2)cc1NC(=O)c1nc(Br)cs1` [Compound 244, 4-bromo-N-(2-methyl-5-(4-(4-(1-methyl-1H-pyrazol-4-yl)phenyl)piperidine-1-carbonyl)phenyl)thiazole-2-carboxamide] the same measures were 95.5 nM, 191 nM, 44.7 nM, 8320 nM and 106%.
